The values that follow come from PMC9304066, “H2S biogenesis by cystathionine beta-synthase: mechanism of inhibition by aminooxyacetic acid and unexpected role of serine” (Cellular and Molecular Life Sciences: CMLS, 2022).

In test [1] the target is T1, HsCBS (Homo sapiens, UniProt P35520, DEL516-525).
T1 construct: purchased GenScript
T1 sequence (P35520 with tags, fused parts or gaps DEL516-525): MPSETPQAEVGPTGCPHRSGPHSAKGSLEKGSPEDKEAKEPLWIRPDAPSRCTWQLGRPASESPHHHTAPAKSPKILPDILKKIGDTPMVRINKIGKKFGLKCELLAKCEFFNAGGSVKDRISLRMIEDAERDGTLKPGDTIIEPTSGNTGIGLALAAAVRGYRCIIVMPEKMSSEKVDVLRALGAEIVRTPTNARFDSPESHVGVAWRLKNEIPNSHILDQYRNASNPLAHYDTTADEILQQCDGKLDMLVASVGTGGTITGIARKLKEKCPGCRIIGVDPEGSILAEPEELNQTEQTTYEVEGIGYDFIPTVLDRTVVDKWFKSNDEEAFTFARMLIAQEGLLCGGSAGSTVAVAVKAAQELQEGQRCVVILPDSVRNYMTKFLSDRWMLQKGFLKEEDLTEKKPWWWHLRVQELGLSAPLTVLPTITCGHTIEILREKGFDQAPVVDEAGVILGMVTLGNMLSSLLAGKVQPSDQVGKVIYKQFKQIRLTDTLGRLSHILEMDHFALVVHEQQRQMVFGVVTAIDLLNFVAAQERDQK
Nature of the test: CBL-LDH coupled-coupled CBS assay, HsCBS. The settings on record: for Reduction of activity catalyzing condensation of Cys and Hcy yielding H2S: AOAA-inhibited HsCBS (200 µM AOAA); for Vmax / kcat: CBL-LDH coupled-coupled assay. It is filed as biochemical. On the procedure: CBS coupled-coupled assay. CBS canonical activity utilizing Ser and Hcy was determined using cystathionine beta-lyase (CBL) and lactate-dehydrogenase (LDH) coupled-coupled assay as described previously with a few modifications. Native L-LDH from rabbit muscle was purchased from Sigma (catalog no. L2500) and recombinant CBL was purchased from Creative Enzymes (catalog no. NATE-1146). In a final volume of 150 µL, the reaction mixture contained 50 mM Tris–HCl pH 8.9, 20 µM PLP, 500 µM NADH, 1.3 µM LDH, 0.1 µM CBL, 0–20 mM Ser (or 0–50 mM Cys) and 500 ng of tScCBS or HsCBS. Assays with HsCBS were carried out in the absence or presence of 500 µM CBS allosteric activator S-adenosylmethionine (SAM). The reaction was triggered by the addition of 2 mM Hcy and the oxidation of NADH to NAD^+ was followed by monitoring the decrease in absorbance at 340 nm over time (ε340 = 6220 M^−1.cm^−1). […] All measurements were performed in triplicates using Tecan Infinite 200 PRO microplate reader. Kinetic data were analyzed using GraphPad Prism software.

Test [2] addresses T2, tScCBS (Saccharomyces cerevisiae, UniProt P32582).
T2 construct: 6xHis (C); made in house
T2 sequence (P32582 1-345): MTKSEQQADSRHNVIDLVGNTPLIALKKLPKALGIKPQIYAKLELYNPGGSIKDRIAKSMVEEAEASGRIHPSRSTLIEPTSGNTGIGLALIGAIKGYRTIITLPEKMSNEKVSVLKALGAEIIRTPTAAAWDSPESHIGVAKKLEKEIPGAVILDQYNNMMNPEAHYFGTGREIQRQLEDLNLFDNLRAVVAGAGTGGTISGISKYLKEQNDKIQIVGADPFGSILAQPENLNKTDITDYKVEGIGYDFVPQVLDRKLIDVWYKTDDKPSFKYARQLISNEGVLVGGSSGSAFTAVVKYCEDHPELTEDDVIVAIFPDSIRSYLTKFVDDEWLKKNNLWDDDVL
Nature of the test: CBS H2S production assay (AzMC fluorometric), tScCBS. It is filed as biochemical. On the procedure:
(§1) CBS H2S production assay. H2S-producing activity of CBS, utilizing Cys and Hcy, was determined using a fluorometric assay employing the H2S-selective fluorescent probe 7-azido-4-methylcoumarin (AzMC) as described previously. The reaction mixture in a total volume of 200 µL contained 50 mM Tris–HCl pH 8.6, 5 μM PLP, 2 mM Hcy, 10 μM AzMC and 500 ng tScCBS or HsCBS. The plate was incubated for 10 min at 37°C and the enzymatic activity was triggered by adding 0–50 mM Cys. The fluorescence of the mixtures at 450 nm (excited at 365 nm) was followed for 2 h at 37°C. All measurements were performed in triplicates using Tecan Infinite 200 PRO microplate reader. Kinetic data were analyzed using GraphPad Prism software.

Test [3] addresses T2, tScCBS. Nature of the test: Kinetics of AOAA binding to tScCBS and displacement by substrate, followed by absorption spectra. As for the experimental part: UV − Vis and fluorescence spectroscopy. Absorption spectra were collected on a Tecan Infinite M200 Pro spectrophotometer in a buffer containing 50 mM Tris–HCl pH 8.5, 20 mM NaCl and 0.5 mM tris(2-carboxyethyl)phosphine (TCEP). All the spectra were carried out with a protein concentration of 1 mg/mL with a 1 cm path-length quartz cuvette in a total volume of 150 µL. tScCBS was titrated directly in a cuvette by successive additions of different concentrations of AOAA, Ser and Cys, respectively, and spectra were recorded between 240 and 600 nm after an incubation time of 3 min at RT. Fluorescence emission spectra were collected under the same conditions upon PLP excitation at 410 nm. Blank spectra were subtracted from sample spectra.
Fig. 2 Spectroscopic rescue of AOAA-inhibited tScCBS by Ser. A Changes in the absorption spectra of tScCBS upon addition of 20 µM AOAA (cyan lines) followed for 1 h. Subsequently, 1 mM Ser (gray lines) was added and spectral changes were followed for additional 1 h. B Representative kinetic fitting of AOAA binding to tScCBS followed at 412 nm. C Representative kinetic fitting of AOAA displacement from tScCBS by Ser by following changes at 370 nm and 460 nm. The kinetic parameters of the observed processes are shown as insets in panels B and C. Far-UV (D) and near-UV (E) CD spectra of tScCBS (black), tScCBS complexed with 20 µM AOAA (cyan) or 1 mM Ser (magenta) and tScCBS complexed with 20 µM AOAA followed by 1 h incubation with 1 mM Ser (green).

Test [4] addresses T1, HsCBS. Nature of the test: CBS H2S production assay (AzMC fluorometric), HsCBS. Format: biochemical. The following applies: for IC50: AzMC assay, 5 mM Cys + 2 mM Hcy. As for the experimental part:
as §1

Where “and” joins values, the source holds several entries; their conditions need not be identical. Identical values can stand only once.

A word on the IC50: it is the point on the concentration scale where inhibition reaches its midpoint. Take `NOCC(=O)O` [AOAA, aminooxyacetic acid]: the “Reduction of activity catalyzing condensation of Cys and Hcy yielding H2S” value worked out at 63% on HsCBS [1] (absence of SAM) and 71% on HsCBS [1] (presence of SAM). Besides, on HsCBS [1] (HsCBS ± 500 µM SAM inhibited by 200 µM AOAA, 5 mM Ser + 2 mM Hcy), the “Effect on condensation of Ser and Hcy (canonical reaction)” value is “not impaired”. At tScCBS [2] (200 µM AOAA, then excess removed by desalting column, range printed for tScCBS and HsCBS together), the “Inhibition of CBS activity” value is 75–92%. Moreover, the half-maximal inhibitory concentration (IC50) at tScCBS [2] (tScCBS, AzMC assay, 5 mM Cys + 2 mM Hcy) is 9.1 µM; on HsCBS [4] (HsCBS in the absence of SAM), 12.8 µM; at HsCBS [4] (HsCBS in the presence of 500 µM SAM), 10.9 µM. In addition, the “Rate constant k of PLP-AOAA oxime intermediate formation” value at tScCBS [3] (20 µM AOAA added to tScCBS, followed at 412 nm) is 0.22 min⁻¹ and 0.22 ± 0.05 min⁻¹.

The term Vmax denotes the rate approached at saturating substrate. One may read the kcat as the maximal rate divided by the concentration of active sites. Take `N[C@@H](CO)C(=O)O` [Ser, serine]: the Vmax came out at 156.3 ± 7.6 µmol/h/mg on HsCBS [1] (HsCBS + SAM) and 37.2 ± 1.5 µmol/h/mg at HsCBS [1] (HsCBS – SAM). The results for the kcat at HsCBS [1] (HsCBS + SAM) and on HsCBS [1] (HsCBS – SAM) were 2.7 ± 0.1 s⁻¹ and 0.63 ± 0.06 s⁻¹, respectively. In addition, the “Recovery of activity of AOAA-inhibited enzyme” value at tScCBS [2] (tScCBS, 1 mM Ser after 200 µM AOAA incubation, then desalting) is “substantial recovery”; on HsCBS [4] (HsCBS in the absence and presence of SAM, 1 mM Ser after 200 µM AOAA incubation, then desalting) it was “substantial recovery”. The “Rate constant k of AOAA displacement from tScCBS by Ser” value on tScCBS [3] (1 mM Ser added after 1 h with 20 µM AOAA, changes at 370 nm and 460 nm) turned out to be 0.07 ± 0.01 min⁻¹. Moreover, the “Slower formation of PLP-aminoacrylate intermediate compared with PLP-AOAA oxime formation” value at tScCBS [3] (1 mM Ser after 20 µM AOAA) is “approximately 3 ×”.
